Data reported in patent US10413532B2, “Pharmaceutical compositions containing a PDE4 inhibitor and a PI3 delta or dual PI3 delta-gamma kinase inhibitor” (Rhizen Pharmaceuticals SA, priority 2012, dated 2019).
pIC50: −log10 of the molar value. Like-named read-outs stand apart in the source and are kept apart here.

Key:
[1] = system: elastase; test: fMLP induced elastase release from human neutrophils; assay type: cell-based; settings: compound alone at 300 nM
Method: Blood was procured from a local blood bank. Neutrophils were obtained using the dextran sedimentation method. Cells were plated at 100,000 cells per well in a 96-well plate, treated with fMLP (1 μM) and N-Succinyl-Ala-Ala-Ala-p-nitroanalide (1 μM) (Sigma) and incubated for 2 h. Intensity of digested substrate after incubation was determined by measuring the absorbance at 405 nm on a Fluostar Omega (BMG Labtech, NC, USA).

[2] = system: MMP-9; test: MMP-9 release from PMA-induced THP-1 cells (gelatin zymography); assay type: cell-based, human; settings: compound alone at 300 nM
Method: Gelatinase activity of MMP-9 was determined by zymography. Proteins in supernatant (after incubation of THP-1 cells with 50 ng PMA for 24 h) were separated on gels containing 0.1% gelatin (Sigma, USA). Gels were re-natured by incubation in 2.5% Triton X-100 for 30 min, incubated overnight in substrate buffer (50 mMTris-HCl, pH 7.5) containing 10 mM CaCl2 and 0.05% ZnCl2 at 37° C. and stained with Coomassie brilliant blue (0.5%). […] Molecular weight markers (Fermentas, Lithuania) were run with each gel. Band intensity was calculated using ImageJ 1.42 (NIH, USA).

[3] = system: pAkt (S473); test: phospho-Akt (S473) in differentiated U937 cells stimulated with cigarette smoke extract (SDS-PAGE); assay type: cell-based; settings: Homo sapiens, U-937; compound alone; differentiated U937, CSE; read-out: IC50 of inhibition of Akt phosphorylation
Method: U-937 monocytes were differentiated into macrophages by incubation with 50 ng/ml PMA for 48 h. Cells were trypsinized and plated at a density of 100,000 per well and stimulated with CSE for 2 h in starvation media. Lysates were made using RIPA buffer and run by SDS-PAGE, transferred to PVDF membrane and probed with phospho-Akt (S473) antibody (Cell signaling, USA) followed by anti-rabbit IgG (Cell signaling, USA). Band intensity was calculated using ImageJ 1.42 (NIH, USA).

[4] = system: macrophage and neutrophil infiltration; test: Acute cigarette smoke induced cell infiltration in male Balb/c mice; assay type: in vivo; settings: acute CS, mouse; for ED50: oral
Method: Animals were acclimatized for seven days prior to the start of the experiment. Animals were randomly distributed to various groups based on their body weights. On day 1, mice were administered by test compound or vehicle by the oral route and after 30 mins test compound administration animals were placed in a whole body exposure box. The mice were exposed to the mainstream smoke of 6 cigarettes from day 1 to day 4. Exposure to the smoke of each cigarette lasted for 10 min (cigarettes were completely burned in the first two minutes and followed by an air flow with animal ventilator) followed by exposure for the next 20 min with fresh room air. After every second cigarette an additional break of 20 min with exposure to fresh room air was conducted. Control animals were exposed to the room air chamber. From day 1 to day 4 animals were administered test compound by the oral route. On day 5, 24 hours after the last cigarette smoke (CS) exposure. animals were exsanguinated under anaesthesia, and the trachea was cannulated and the lungs were lavaged with 0.5 ml aliquots of heparinised PBS (1 unit/ml) four times through a tracheal cannula (total volume 2 ml). Bronchioalveolar (BAL) collected was stored at 2-8° C. until assayed for total cell and differential leukocyte count. BAL fluid was centrifuged (500×g for 10 min) and the resulting cell pellet was resuspended in 0.5 ml of heparinised saline. The total number of white blood cells was determined in BAL fluid and blood using a blood cell counter and adjusted to 1×10^6 cell/ml. Differential cell count was calculated manually. Forty microliters of the cell suspension was centrifuged using cytospin 3 to prepare a cell smear. The cell smear was stained with a blood staining solution for differentiation and microscopically observed by identifying each cell according to its morphological characteristics. The number of each cell type among 300 white blood cells in the cell smear were determined and expressed as a percentage, and the number of neutrophils and macrophages in each BAL fluid were calculated.
The procedure for acute cigarette smoke induced cell infiltration in male Balb/c mice described in Example 1 was performed with Compound A1 and roflumilast

[5] = system: TNFα; test: LPS induced TNFα in PBMC; assay type: cell-based; settings: 1000 nM alone, LPS 1 μg/ml, 24 h
Method: PBMC (peripheral blood mononuclear cells) from whole blood were isolated by density gradient using Histopaque and incubated with the desired concentration of inhibitor for 15 minutes. LPS (1 μg/ml) was added and then incubated for 24 hours. The supernatant was collected and TNFα estimated using an eBioscience TNFα ELISA kit.
PBMC from whole blood were isolated by density gradient using Histopaque and incubated with the desired concentration of inhibitor for 15 minutes. LPS (1 μg/m1) was added and then incubated for 24 hours. The supernatant was collected and TNFα estimated using an eBioscience TNFα ELISA kit.

[6] = system: macrophage and neutrophil infiltration; test: Chronic cigarette smoke induced cell infiltration in male Balb/c mice; assay type: in vivo; settings: alone at 1 mg/kg oral; chronic CS, mouse
Method: Animals were acclimatized for seven days prior to the start of the experiment. Animals were randomly distributed to various groups based on their body weights. Mice were exposed to the mainstream smoke of 4 cigarettes from day 1 to day 11. Exposure to the smoke of each cigarette lasted for […] (each cigarette was completely burned in the first two minutes, followed by an air flow with animal ventilator) and were exposed for the next 20 min with fresh room air. After every second cigarette an additional break of 20 min with exposure to fresh room air was conducted. Control animals were exposed to the room air chamber. Test compound was administered by the oral route from day 6 to day 11 before 30 mins whole body smoke exposure. On day 12, 24 hours after the last cigarette smoke (CS) exposure animals were exsanguinated under anaesthesia, and the trachea was cannulated and the lungs were lavaged with 0.5 ml aliquots of heparinised PBS (1 unit/nil) four times through tracheal cannula (total volume 2 ml). Bronchioalveolar (BAL) collected was stored at 2-8° C. until assayed for total cell and differential leukocyte count. BAL fluid was centrifuged (500×g for 10 min) and the resulting cell pellet was resuspended in 0.5 ml of heparinised saline. The total number of white blood cells was determined in BAL fluid and blood using a blood cell counter and adjusted to 1×10^6 cell/ml. Differential cell count was calculated manually Forty microliters of the cell suspension was centrifuged using cytospin 3 to prepare a cell smear. The cell smear was stained with a blood staining solution for differentiation and microscopically observed by identifying each cell according to its morphological characteristics. The number of each cell type among 300 white blood cells in the cell smear was determined and expressed as a percentage, and the number of neutrophils and macrophages in each BAL fluid were calculated.

[7] = system: neutrophil infiltration; test: Lipopolysaccharide induced pulmonary neutrophilia in female Wistar rats; assay type: in vivo
Method: After the quarantine period, fasted animals were randomized and divided into groups depending on their body weights. Test compound was prepared as a suspension in a vehicle consisting of 0.5% methylcellulose in which Tween 80 was used as a suspending agent. Compounds or vehicle were administered by oral gavage in a volume of 10 mL/kg. Animals were anaesthetized with ketamine and LPS solution was administered intratracheally 30 minutes after compound administration at a dose of 1 mg/kg. Six hours after LPS instillation, animals were exsanguinated under anaesthesia, and the trachea was cannulated, and lungs were lavaged with 5-ml aliquots of heparinised PBS (1 unit/ml) four times through the tracheal cannula (total volume 20 ml). Bronchioalveolar (BAL) fluid was stored at 2-8° C. until assayed for total cell and differential leukocyte count. BAL fluid was centrifuged (500×g for 10 min) and the resulting cell pellet was resuspended in 0.5 ml of heparinised saline. The total numbers of white blood cells were determined in BAL fluid or blood using a cell counter and were adjusted to 1×10^6 cell/ml. Differential cell count was calculated manually. One hundred microliters of the cell suspension was centrifuged using cytospin 3 to prepare a cell smear. The cell smear was stained with a blood staining solution for differentiation and slides were microscopically observed to identify eosinophils according to their morphological characteristics. The number of each cell type among 300 white blood cells in the cell smear was determined and expressed as a percentage of total cells. The number of eosinophil in BALF was calculated.
The procedure for LPS induced pulmonary neutrophilia in female Wistar rats as described in Example 1 was performed with compound A1 and roflumilast.

[8] = system: TNFα; test: LPS induced TNFα in MH-S (mouse alveolar macrophage) cells; assay type: cell-based; settings: 130 nM alone
Method: MH-S represents a mouse alveolar macrophage cell line that secretes copious amounts of TNFα upon induction by LPS. Cells were plated at 150,000 cells per well. 10 nM of Compound A1 (final concentration) was added 15 minutes prior to the addition of roflumilast. LPS (1 μg/ml) was added and then incubated for 4 hours. The supernatant was collected after 20 hours and TNFα was estimated using an ELISA kit.

[9] = 3 mg/kg oral, dose-response study
[10] = combination study, alone at 3 mg/kg

Cc1ccccc1-n1c(Cn2cnc3c(N)ncnc32)nc2cccc(C)c2c1=O [Compound B, 2-((6-amino-9H-purin-9-yl)methyl)-5-methyl-3-o-tolylquinazolin-4(3H)-one]
reduction of elastase release [1]: 10% | effect on MMP-9 release [2]: no effect | pIC50 [3]: 6.11

C[C@H](Nc1ncnc2[nH]cnc12)c1oc2ccc(F)cc2c(=O)c1-c1cccc(F)c1 [Compound C, (S)-2-(1-(9H-purin-6-ylamino)ethyl)-6-fluoro-3-(3-fluorophenyl)-4H-chromen-4-one]
percent inhibition of macrophage infiltration ([4]; 1 mg/kg oral): 34.84% | percent inhibition of neutrophil infiltration ([4]; 1 mg/kg oral): 29.06% | percent inhibition of macrophage infiltration [4, 9]: 42.09% | percent inhibition of neutrophil infiltration [4, 9]: 62.38% | percent inhibition of macrophage infiltration ([4]; 10 mg/kg oral): 61.77% | percent inhibition of neutrophil infiltration ([4]; 10 mg/kg oral): 74.25% | ED50 ([4]; Macrophage, read-out: 50% inhibition (ED50) dose, macrophage infiltration): 4.4 mg/kg | ED50 ([4]; Neutrophil, read-out: dose of 50% inhibition (ED50) of neutrophil infiltration): 2.1 mg/kg | inhibition of macrophage infiltration [4, 10]: 30.01% | inhibition of neutrophil infiltration [4, 10]: 41.47% | decrease of TNFα secretion [5]: 20% | inhibition of macrophage infiltration [6]: −13.30% | inhibition of neutrophil infiltration [6]: 4.08% | percent inhibition of neutrophil infiltration ([7]; 0.1 mg/kg oral, rat BAL fluid 6 h after LPS): 14.15% | percent inhibition of neutrophil infiltration ([7]; 1 mg/kg oral, dose-response study, rat): 57.76% | percent inhibition of neutrophil infiltration ([7]; 3 mg/kg oral, rat): 56.93% | percent inhibition of neutrophil infiltration ([7]; 10 mg/kg oral, rat): 81.55% | ED50 ([7]; Neutrophil, oral, rat LPS pulmonary neutrophilia, read-out: 50% inhibition (ED50) dose, neutrophil infiltration): 1 mg/kg | inhibition of neutrophil infiltration ([7]; combination study, alone at 1 mg/kg, rat): 36.56%

CCOc1cc([C@@H](CS(C)(=O)=O)N2C(=O)c3cccc(NC(C)=O)c3C2=O)ccc1OC [aprelimilast, reference compound]
decrease in TNFα secretion [8]: ~10%
